Results taken from patent US4196205A, “3-Acetoxymethyl-7-(iminoacetamido)-cephalosporanic acid derivatives” (priority 1976, dated 1980).
Converted amounts (≈) assume the structure as drawn. Where two headings read alike, the source gives them in different places.

Tests used:
[1] = tested on: Bacillus subtilis ATCC 6 633; assay: MIC, dilution in liquid medium; type: cell-based
Procedure: (§1) The method used was a dilution of a liquid medium where a series of tubes received the same quantity of a sterile nutritive media and increasing doses of the test compounds were placed therein. Then each tube was seeded with a bacterial strain and was incubated for 24 to 48 hours at 37° C. in an oven. The increasing inhibition was determined by transillumination to determine the minimum inhibiting concentration (MIC in […]) and the results are reported in the following Tables.

Enterobacter cloacae 681 = assay: MIC, dilution in liquid medium; type: cell-based
Procedure: as §1

Escherichia Coli 25 575 = assay: MIC, dilution in liquid medium; type: cell-based
Procedure: as §1

Escherichia Coli E6 = assay: MIC, dilution in liquid medium; type: cell-based
Procedure: as §1

[2] = tested on: Escherichia Coli Exp. TO26 B6; assay: MIC, dilution in liquid medium; type: cell-based; settings: Escherichia coli, 48 h
Procedure: as §1

Escherichia Coli Galle = assay: MIC, dilution in liquid medium; type: cell-based
Procedure: as §1

[3] = tested on: Escherichia Coli Resistant Gentamicine, Tobramycine R 55 123 D; assay: MIC, dilution in liquid medium; type: cell-based
Procedure: as §1

[4] = tested on: Escherichia Coli Resistant Tetracycline ATCC 11 303 = UC 1261; assay: MIC, dilution in liquid medium; type: cell-based; settings: Escherichia coli, read-out: M.I.C.
Procedure: as §1

[5] = tested on: Escherichia Coli Sensible Tetracycline ATCC 9 637 = 1020; assay: MIC, dilution in liquid medium; type: cell-based
Procedure: as §1

[6] = tested on: Escherichia Coli T 96 875; assay: MIC, dilution in liquid medium; type: cell-based
Procedure: as §1

[7] = tested on: Klebsiella pneumoniae 2 536 Resistant Gentamicine; assay: MIC, dilution in liquid medium; type: cell-based
Procedure: as §1

[8] = tested on: Klebsiella pneumoniae Exp. 52 145; assay: MIC, dilution in liquid medium; type: cell-based; settings: Klebsiella pneumoniae, read-out: M.I.C.
Procedure: as §1

[9] = tested on: Proteus mirabilis (indol-) A 235; assay: MIC, dilution in liquid medium; type: cell-based; settings: Proteus mirabilis, read-out: M.I.C.
Procedure: as §1

[10] = tested on: Proteus vulgaris (indol+) A 232; assay: MIC, dilution in liquid medium; type: cell-based
Procedure: as §1

Providencia Du 48 = assay: MIC, dilution in liquid medium; type: cell-based
Procedure: as §1

[11] = tested on: Pseudomonas 3 935 Exp. SG; assay: MIC, dilution in liquid medium; type: cell-based; settings: Pseudomonas, 3935EXP.SG
Procedure: as §1

Pseudomonas 8951 RGT = assay: MIC, dilution in liquid medium; type: cell-based
Procedure: as §1

[12] = tested on: Salmonella typhimurium 420; assay: MIC, dilution in liquid medium; type: cell-based; settings: Salmonella enterica, TYPHIMURIUM, read-out: M.I.C.
Procedure: as §1

[13] = tested on: Serratia Resistant Gentamicine 2 532; assay: MIC, dilution in liquid medium; type: cell-based; settings: read-out: M.I.C.
Procedure: as §1

[14] = tested on: Staphylococcus aureus ATCC 5 638 Pen-Sensible = UC 1061; assay: MIC, dilution in liquid medium; type: cell-based; settings: read-out: M.I.C.
Procedure: as §1

[15] = tested on: Staphylococcus aureus UC 1 128 Pen-Resistant; assay: MIC, dilution in liquid medium; type: cell-based; settings: Staphylococcus aureus
Procedure: as §1

[16] = tested on: Staphylococcus aureus exp. n° 54 146; assay: MIC, dilution in liquid medium; type: cell-based; settings: Staphylococcus aureus
Procedure: as §1

Straphylococcus Smith = assay: MIC, dilution in liquid medium; type: cell-based
Procedure: as §1

[17] = tested on: Streptococcus faecalis 5 432; assay: MIC, dilution in liquid medium; type: cell-based
Procedure: as §1

[18] = tested on: Streptococcus faecalis 99 F 74; assay: MIC, dilution in liquid medium; type: cell-based; settings: Enterococcus faecalis
Procedure: as §1

[19] = tested on: Streptococcus pyogenes A 561; assay: MIC, dilution in liquid medium; type: cell-based
Procedure: as §1

[20] = tested on: Escherichia Coli (T) O26 B6; assay: Experimental infection with Escherichia Coli (T) O26 B6 in mice (21.5 g, culture diluted 1/6); type: in vivo, male mice
Procedure: (§2) The product of Example 4 was studied for its activity against an experimental infection of Escherichia Coli in groups of 10 male mice weighing about 21.5 g. The mice recieved an intraperitoneal injection of 0.5 ml of a 24 hour old culture in a nutritive media of Escherichia Coli (T) O26 B6 of the Pasteur Institute diluted 1/6 with distilled water. The test product was administered subcutaneously or orally 1 hour and 5 and 24 hours after the infection and the number of dead was determined after 8 days.

[21] = tested on: Escherichia Coli (T) O26 B6; assay: Experimental infection with Escherichia Coli (T) O26 B6 in mice, repeated (22.5 g, culture diluted 1/5.5); type: in vivo
Procedure: as §2
The procedure was repeated with mice weighing about 22.5 g with an intraperitoneal injection of a 24 hour old culture of Escherichia Coli (T) O26 B6 diluted 1/5.5 with distilled water with the product of Example 4.

`CO/N=C(\C(=O)N[C@@H]1C(=O)N2C(C(=O)O)=C(COC(C)=O)CS[C@H]12)c1csc(N)n1` [Example 4, 3-acetoxymethyl-7-[2-(2-amino-4-thiazolyl)-2-methoxyiminoacetamido]-ceph-3-eme-4-carboxylic acid] was tested, and the M.I.C. ([1]; 24 H) was 0,2 μg/ml, the MIC ([1]; Bacillus subtilis, ATCC6, 48 h, 48 H, read-out: M.I.C.) was 1 µg/mL (≈ 2.2 µM) and the MIC (Enterobacter cloacae 681; Enterobacter cloacae, 681, 24 h) was 40 µg/mL (≈ 87.8 µM). It also gave an MIC (Enterobacter cloacae 681; Enterobacter cloacae, 681, 48 h) of 40 µg/mL (≈ 87.8 µM), an MIC (Escherichia Coli 25 575; COLI25575, 24 h) of 0.05 µg/mL (≈ 0.11 µM) and an MIC (Escherichia Coli 25 575; COLI25575, 48 h) of 0.05 µg/mL (≈ 0.11 µM). The MIC (Escherichia Coli E6; COLIE6, 24 h) was 0.05 µg/mL (≈ 0.11 µM), the MIC (Escherichia Coli E6; COLIE6, 48 h) was 0.05 µg/mL (≈ 0.11 µM) and the MIC [2] was 0.1 µg/mL (≈ 0.22 µM). The MIC (Escherichia Coli Galle; 24 h) was 0.1 µg/mL (≈ 0.22 µM), the MIC (Escherichia Coli Galle; 48 h) was 0.2 µg/mL (≈ 0.439 µM) and the M.I.C. ([3]; 24 H) was 0,6 μg/ml. The M.I.C. ([3]; 48 H) was 0,6-1 μg/ml, the MIC ([4]; 24 h) was 0.02 µg/mL (≈ 0.0439 µM) and the MIC ([4]; 48 h) was 0.02 µg/mL (≈ 0.0439 µM). For the same compound, the M.I.C. ([5]; 48 H) was 0,2 μg/ml, the MIC ([5]; Escherichia coli, ATCC9, 24 h, 24 H, read-out: M.I.C.) was 0.2 µg/mL (≈ 0.439 µM) and the MIC ([6]; COLIT96875, 24 h) was 0.05 µg/mL (≈ 0.11 µM). For the same compound, the MIC ([6]; COLIT96875, 48 h) was 0.05 µg/mL (≈ 0.11 µM), the M.I.C. ([7]; 24 H) was 0,6 μg/ml and the M.I.C. ([7]; 48 H) was 0,6 μg/ml. It also gave an MIC ([8]; EXP.52145, 24 h, 24 H) of 0.02 µg/mL (≈ 0.0439 µM), an MIC ([8]; EXP.52145, 48 h, 48 H) of 0.02 µg/mL (≈ 0.0439 µM) and an MIC ([9]; 24 h) of 0.02 µg/mL (≈ 0.0439 µM). The MIC ([9]; 48 h) was 0.02 µg/mL (≈ 0.0439 µM), the M.I.C. ([10]; 24 H) was 2 µg/mL and the M.I.C. ([10]; 48 H) was 40 µg/mL. For the same compound, the M.I.C. (Providencia Du 48; 24 H) was 5 µg/mL, the M.I.C. (Providencia Du 48; 48 H) was 5 µg/mL and the MIC ([11]; 24 h, read-out: M.I.C.) was 10 µg/mL (≈ 22 µM). For the same compound, the MIC ([11]; 48 h) was 40 µg/mL (≈ 87.8 µM), the MIC (Pseudomonas 8951 RGT; 24 h) was 40 µg/mL (≈ 87.8 µM) and the MIC (Pseudomonas 8951 RGT; 48 h) was greater than 40 µg/mL. For the same compound, the MIC ([12]; 24 h) was 0.2 µg/mL (≈ 0.439 µM), the MIC ([12]; 48 h) was 0.2 µg/mL (≈ 0.439 µM) and the MIC ([13]; 24 h) was 1 µg/mL (≈ 2.2 µM). For the same compound, the MIC ([13]; 48 h) was 1 µg/mL (≈ 2.2 µM), the MIC ([14]; 24 h) was 1 µg/mL (≈ 2.2 µM) and the MIC ([14]; 48 h) was 1 µg/mL (≈ 2.2 µM). For the same compound, the MIC ([15]; UC1, 24 h, 24 H) was 2 µg/mL (≈ 4.39 µM), the MIC ([15]; UC1, 48 h, 48 H) was 2 µg/mL (≈ 4.39 µM) and the MIC ([16]; 24 h, read-out: M.I.C.) was 3 µg/mL (≈ 6.59 µM). For the same compound, the MIC ([16]; 48 h) was 3 µg/mL (≈ 6.59 µM), the MIC (Straphylococcus Smith; 24 h) was 1 µg/mL (≈ 2.2 µM) and the MIC (Straphylococcus Smith; 48 h) was 1 µg/mL (≈ 2.2 µM). It also gave an MIC ([17]; Enterococcus faecalis, 5432, 24 h, 24 H) of 2 µg/mL (≈ 4.39 µM), an MIC ([17]; Enterococcus faecalis, 5432, 48 h, 48 H) of 2 µg/mL (≈ 4.39 µM) and an MIC ([18]; 99F74, 24 h, 24 H) of 2 µg/mL (≈ 4.39 µM). The MIC ([18]; 99F74, 48 h, 48 H) was 3 µg/mL (≈ 6.59 µM), the M.I.C. ([19]; 48 H) was 0,05 μg/ml and the MIC ([19]; Streptococcus pyogenes, A561, 24 h, 24 H, read-out: M.I.C.) was 0.02 µg/mL (≈ 0.0439 µM). The “mice alive after 8 days” value ([20]; 0.05 mg subcutaneously) was 10/10, the “deaths after 28.5 h (out of 10 mice)” value ([20]; 0.1 mg orally) was 1 and the “mice alive after 8 days” value ([20]; 0.1 mg orally) was 9/10. For the same compound, the “mice alive after 8 days” value ([20]; 0.1 mg subcutaneously (first line)) was 10/10, the “mice alive after 8 days” value ([20]; 0.1 mg subcutaneously (second line)) was 10/10 and the “mice alive after 8 days” value ([20]; 0.25 mg orally) was 10/10. For the same compound, the “mice alive after 8 days” value ([20]; 0.25 mg subcutaneously) was 10/10, the “mice alive after 8 days” value ([20]; 0.5 mg orally) was 10/10 and the “MORTALITY AFTER 9H 35” value ([21]; 0,1 mg OS) was 1. For the same compound, the “MORTALITY AFTER 24H” value ([21]; 0,1 mg OS) was 1, the “MORTALITY AFTER 32H” value ([21]; 0,1 mg OS) was 2 and the “MORTALITY AFTER 70H” value ([21]; 0,1 mg OS) was 1. For the same compound, the “Mice alive on the 8th Day” value ([21]; 0,1 mg OS) was 5/10, the “MORTALITY AFTER 22H 30” value ([21]; 0,05 mg OS) was 4 and the “MORTALITY AFTER 24H” value ([21]; 0,05 mg OS) was 1. The “MORTALITY AFTER 31H” value ([21]; 0,05 mg OS) was 1, the “MORTALITY AFTER 32H” value ([21]; 0,05 mg OS) was 2 and the “Mice alive on the 8th Day” value ([21]; 0,05 mg OS) was 2/10. The “Mice alive on the 8th Day” value ([21]; 0,05 mg S.C.) was 10/10, the “Mice alive on the 8th Day” value ([21]; 0,25 mg OS) was 10/10 and the “MORTALITY AFTER 22H 30” value ([21]; 0,015 mg S.C.) was 2. For the same compound, the “MORTALITY AFTER 23H 50” value ([21]; 0,015 mg S.C.) was 2, the “MORTALITY AFTER 46H 30” value ([21]; 0,015 mg S.C.) was 2 and the “Mice alive on the 8th Day” value ([21]; 0,015 mg S.C.) was 4/10. The “MORTALITY AFTER 4j” value ([21]; 0,025 mg S.C.) was 2, the “MORTALITY AFTER 25H 50” value ([21]; 0,025 mg S.C.) was 1 and the “MORTALITY AFTER 26H 30” value ([21]; 0,025 mg S.C.) was 1. The “Mice alive on the 8th Day” value ([21]; 0,025 mg S.C.) was 6/10.
